pKi: −log10 of the molar value. Like-named read-outs stand apart in the source and are kept apart here.
How the values were obtained:
Assay type in all cases: biochemical
Cathepsin L = Cathepsin L (Homo sapiens, UniProt P07711); experiment: Cathepsin L inhibition, fluorogenic peptide substrate kinetic assay (selectivity); conditions: ratio of cathepsin L inhibition constant to cathepsin S inhibition constant
Cathepsin K = target: T1, Cathepsin K (Homo sapiens, UniProt P43235); experiment: Cathepsin K inhibition, fluorogenic peptide substrate kinetic assay (selectivity); conditions: ratio of cathepsin K inhibition constant to cathepsin S inhibition constant
T1 sequence (P43235 115-329): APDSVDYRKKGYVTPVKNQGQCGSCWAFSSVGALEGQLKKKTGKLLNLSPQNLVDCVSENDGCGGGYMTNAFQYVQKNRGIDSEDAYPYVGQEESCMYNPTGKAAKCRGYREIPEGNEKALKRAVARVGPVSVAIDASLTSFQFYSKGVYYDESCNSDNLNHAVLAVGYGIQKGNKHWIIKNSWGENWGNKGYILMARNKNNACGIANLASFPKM

Cathepsin B = Cathepsin B (Homo sapiens, UniProt P07858); experiment: Cathepsin B inhibition, fluorogenic peptide substrate kinetic assay (selectivity); conditions: ratio of cathepsin B inhibition constant to cathepsin S inhibition constant;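 also: value is the cathepsin B inhibition constant divided by the cathepsin S one, each from kinetic fluorescence readings (ex 380 nm, em 450 nm) of a 10 µM coumarin peptide substrate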
Cathepsin S = Cathepsin S (Homo sapiens, UniProt P25774); experiment: Cathepsin S inhibition, fluorogenic peptide substrate kinetic assay;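 also: cleavage rate of a coumarin-labelled peptide substrate (50 µM) read as fluorescence increase at Ex 380 nm and Em 450 nm, relative to inhibitor-free control reactions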
[1] = Cathepsin S inhibition constant, pH5.5, 20 minutes preincubation at room temperature, read-out: Ki Cat. S

Cathepsin S, sequence (P25774 115-331, species assumed): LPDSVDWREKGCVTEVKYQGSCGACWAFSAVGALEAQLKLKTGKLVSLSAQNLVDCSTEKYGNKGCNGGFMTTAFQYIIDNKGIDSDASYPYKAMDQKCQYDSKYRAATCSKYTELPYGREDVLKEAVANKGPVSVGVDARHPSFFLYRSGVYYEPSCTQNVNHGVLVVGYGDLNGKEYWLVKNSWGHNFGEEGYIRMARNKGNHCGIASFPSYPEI
Cathepsin L, sequence (P07711 114-333, species assumed): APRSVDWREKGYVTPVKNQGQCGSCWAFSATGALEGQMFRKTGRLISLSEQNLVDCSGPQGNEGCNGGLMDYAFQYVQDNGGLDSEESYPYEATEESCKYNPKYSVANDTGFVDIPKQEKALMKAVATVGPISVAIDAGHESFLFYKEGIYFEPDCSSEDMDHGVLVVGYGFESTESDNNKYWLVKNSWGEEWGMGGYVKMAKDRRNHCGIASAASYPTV

SMILES: CC(C)[C@@H](CN1CC(C)(C)c2cc(F)ccc21)NC(=O)O[C@H](C(=O)N1CCOCC1)C1CCCCC1 [Example 111, [1-(S)-(5-Fluoro-3,3-dimethyl-2,3-dihydro-indol-1-ylmethyl)-2-methyl-propyl]-carbamic acid 1-(S)-cyclohexyl-2-morpholin-4-yl-2-oxo-ethyl ester]
- Selectivity for Cat. S over Cat. L (Cathepsin L): ++ (++, >100)
- Selectivity for Cat. S over Cat. K (Cathepsin K): + (+, >10)
- Selectivity for Cat. S over Cat. B (Cathepsin B): +++ (+++, >1000)
- pKi (Cathepsin S; [1]): > 7.00

SMILES: O=C(N[C@@H](CCc1ccccc1)CNc1ccc(OC(F)(F)F)cc1)[C@H](CCC1CCCC1)CC(=O)N1CCOCC1 [Example 37, 2-(R)-(2-Cyclopentyl-ethyl)-4-morpholin-4-yl-4-oxo-N-{3-phenyl-1-(S)-[(4-trifluoromethoxy-phenylamino)-methyl]-propyl}-butyramide]
- Selectivity for Cat. S over Cat. L (Cathepsin L): + (+, >10)
- Selectivity for Cat. S over Cat. K (Cathepsin K): ++ (++, >100)
- Selectivity for Cat. S over Cat. B (Cathepsin B): ++ (++, >100)
- pKi (Cathepsin S): > 7.00

SMILES: CC(C)[C@@H](CN1CC(C)(C)c2cc(F)ccc21)NC(=O)O[C@@H](CS(=O)(=O)Cc1ccccc1)C(=O)N1CCOCC1 [Example 110, [1-(S)-(5-Fluoro-3,3-dimethyl-2,3-dihydro-indol-1-ylmethyl)-2-methyl-propyl]-carbamic acid 2-morpholin-4-yl-2-oxo-1-(R)-phenylmethanesulfonylmethyl-ethyl ester]
- Selectivity for Cat. S over Cat. L (Cathepsin L): + (+, >10)
- Selectivity for Cat. S over Cat. K (Cathepsin K): + (+, >10)
- Selectivity for Cat. S over Cat. B (Cathepsin B): + (+, >10)
- pKi (Cathepsin S; [1]): 5.00 to 6.00

SMILES: Cc1cc(NC[C@H](C)NC(=O)O[C@@H](CC2CCCCC2)C(=O)N2CCOCC2)no1 [Example 91, [1-(S)-Methyl-2-(5-methyl-isoxazol-3-ylamino)-ethyl]-carbamic acid 1-(S)-cyclohexylmethyl-2-morpholin-4-yl-2-oxo-ethyl ester]
- Selectivity for Cat. S over Cat. L (Cathepsin L): + (+, >10)
- Selectivity for Cat. S over Cat. K (Cathepsin K): + (+, >10)
- Selectivity for Cat. S over Cat. B (Cathepsin B): + (+, >10)
- pKi (Cathepsin S; [1]): 5.00 to 6.00

SMILES: CC(C)[C@@H](CN1CC(C)(C)c2cc(F)ccc21)NC(=O)[C@@H](CC(=O)N1CCOCC1)c1ccc(C(F)(F)F)cc1 [Example 68, N-[1-(S)-(5-Fluoro-3,3-dimethyl-2,3-dihydro-indol-1-ylmethyl)-2-methyl-propyl]-4-morpholin-4-yl-4-oxo-2-(S)-(4-trifluoromethyl-phenyl)-butyramide]
- Selectivity for Cat. S over Cat. L (Cathepsin L): +++ (+++, >1000)
- Selectivity for Cat. S over Cat. K (Cathepsin K): ++ (++, >100)
- Selectivity for Cat. S over Cat. B (Cathepsin B): +++ (+++, >1000)
- pKi (Cathepsin S; [1]): > 7.00

SMILES: CC(C)[C@@H](CNc1ccc(OC(F)(F)F)cc1)NC(=O)[C@@H](CC(=O)N1CCOCC1)c1ccccc1 [Example 34, N-{2-Methyl-1-(S)-[(4-trifluoromethoxy-phenylamino)-methyl]-propyl}-4-morpholin-4-yl-4-oxo-2-(S)-phenyl-butyramide]
- Selectivity for Cat. S over Cat. L (Cathepsin L): + (+, >10)
- Selectivity for Cat. S over Cat. K (Cathepsin K): + (+, >10)
- Selectivity for Cat. S over Cat. B (Cathepsin B): +++ (+++, >1000)
- pKi (Cathepsin S): > 7.00

SMILES: C[C@@H](CNc1ccc(OC(F)(F)F)cc1)NC(=O)[C@@H](CC(=O)N1CCOCC1)c1ccc(F)cc1 [Example 62, 2-(S)-(4-Fluoro-phenyl)-N-[1-(S)-methyl-2-(4-trifluoromethoxy-phenylamino)-ethyl]-4-morpholin-4-yl-4-oxo-butyramide]
- Selectivity for Cat. S over Cat. L (Cathepsin L): ++ (++, >100)
- Selectivity for Cat. S over Cat. K (Cathepsin K): ++ (++, >100)
- Selectivity for Cat. S over Cat. B (Cathepsin B): ++ (++, >100)
- pKi (Cathepsin S; [1]): 6.00 to 7.00
